# Earlier results as cited in patent US6358541B1, “Topical preparation for the treatment of hair loss” (priority 2000, dated 2002).
# Key:
# [1] = topical
# [2] = 0.1 wt. % adapalene gel, versus petroleum jelly control
# comedones = details: topical
# [3] = vapor; OSHA list 1990
smiles,measurement,setting,value
"O=C(O)CCCCCCCC(=O)O [Azeleic acid, 1,7 heptanedicarboxylic acid]",irritation relative to tretinoin (retinoic acid),[1],less irritation than tretinoin
"COc1ccc(-c2ccc3cc(C(=O)O)ccc3c2)cc1C12CC3CC(CC(C3)C1)C2 [adapalene, Adapalene]",irritative potential,[2],low irritative potential only slightly greater than a petroleum jelly control
same,comedolytic activity,comedones,significant comedolytic activity
[O][Cl+][O-] [chlorine dioxide],Permissible Exposure Level (PEL),[3],0.1 ppm
"CC1=C(/C=C/C(C)=C/C=C/C(C)=C/C=O)C(C)(C)CCC1 [retinaldehyde, Retinaldehyde]",irritation relative to tretinoin (retinoic acid),[1],significantly less irritating than retinoic acid
